Assay results published in the NIST ThermoML archive (doi:10.1021/je0302001).
± gives the expanded uncertainty stated by the source.

Assay: mn = molality of the nth substance listed, in mol/kg
Conditions: 101.3 kPa, Liquid; for viscosity: Capillary tube (Ostwald / Ubbelohde) method

O=[N+]([O-])[O-].O=[N+]([O-])[O-].[Zn+2] [nitric acid, zinc salt] + O
Conditions	mass density [kg/m3]	speed of sound [m/s]	viscosity [mPa·s]
313.15 K, m1 = 0.3388	–	1540.3 ± 4.1	–
313.15 K, m1 = 0.6111	–	1548.3 ± 4.1	–
313.15 K, m1 = 0.6405	–	1550.9 ± 4.1	–
313.15 K, m1 = 1.113	–	1571.8 ± 4.2	–
313.15 K, m1 = 1.258	–	1580.9 ± 4.2	–
313.15 K, m1 = 1.551	–	1595.3 ± 4.2	–
313.15 K, m1 = 1.906	–	1613.8 ± 4.3	–
313.15 K, m1 = 2.145	–	1624.5 ± 4.3	–
313.15 K, m1 = 2.29	–	1630.2 ± 4.3	–
313.15 K, m1 = 2.292	–	1631.4 ± 4.3	–
313.15 K, m1 = 2.344	–	1634.6 ± 4.3	–
313.15 K, m1 = 2.91	–	1659.9 ± 4.4	–
313.15 K, m1 = 3.472	–	1683.4 ± 4.4	–
313.15 K, m1 = 4.075	–	1702.8 ± 4.5	–
313.15 K, m1 = 4.817	–	1727.1 ± 4.6	–
313.15 K, m1 = 5.224	–	1733.1 ± 4.6	–
313.15 K, m1 = 5.797	–	1742.3 ± 4.6	–
313.15 K, m1 = 6.34	–	1747.6 ± 4.6	–
313.15 K, m1 = 6.89	–	1751.5 ± 4.6	–
313.15 K, m1 = 7.349	–	1751.7 ± 4.7	–
313.3 K, m1 = 2.145	1277.4 ± 1	–	–
313.55 K, m1 = 0.1329	1011.2 ± 0.8	–	–
313.85 K, m1 = 0.6111	1080.1 ± 0.8	–	–
313.95 K, m1 = 1.906	1248.8 ± 1	–	–
313.95 K, m1 = 2.29	1293.8 ± 1.1	–	–
314 K, m1 = 5.8	1619.4 ± 1.5	–	–
314.1 K, m1 = 0.0875	1004.4 ± 0.8	–	–
314.15 K, m1 = 7.764	1746 ± 1.7	–	–
314.2 K, m1 = 2.344	1300 ± 1.1	–	–
314.25 K, m1 = 0.6405	1084 ± 0.8	–	–
314.35 K, m1 = 0.2466	1027.8 ± 0.8	–	–
314.35 K, m1 = 7.349	1722 ± 1.7	–	–
314.45 K, m1 = 0.3388	1041 ± 0.8	–	–
314.6 K, m1 = 2.91	1362 ± 1.1	–	–
314.7 K, m1 = 4.817	1542.3 ± 1.4	–	–
314.95 K, m1 = 1.551	1204.4 ± 1	–	–
314.95 K, m1 = 4.075	1477.2 ± 1.3	–	–
315.05 K, m1 = 1.113	1147.9 ± 0.9	–	–
315.05 K, m1 = 6.89	1692.9 ± 1.6	–	–
315.1 K, m1 = 3.472	1419.3 ± 1.2	–	–
315.9 K, m1 = 6.34	1655.7 ± 1.6	–	–
315.95 K, m1 = 0.1329	1010.2 ± 0.8	–	–
315.95 K, m1 = 7.349	1720.2 ± 1.7	–	–
316.15 K, m1 = 0.6111	1079 ± 0.8	–	–
316.2 K, m1 = 2.292	1292.7 ± 1.1	–	–
316.4 K, m1 = 0.6405	1082.8 ± 0.8	–	–
316.6 K, m1 = 5.224	1573.5 ± 1.4	–	–
316.75 K, m1 = 0.0875	1003.3 ± 0.8	–	–
316.8 K, m1 = 0.2466	1026.7 ± 0.8	–	–
316.8 K, m1 = 0.3388	1039.9 ± 0.8	–	–
316.85 K, m1 = 1.258	1166.1 ± 0.9	–	–
316.9 K, m1 = 1.551	1203.1 ± 1	–	–
317.15 K, m1 = 2.145	1274.9 ± 1.1	–	–
317.25 K, m1 = 1.113	1146.8 ± 0.9	–	–
317.5 K, m1 = 5.8	1616 ± 1.5	–	–
317.6 K, m1 = 7.764	1742.3 ± 1.7	–	–
317.65 K, m1 = 7.349	1718.4 ± 1.7	–	–
317.8 K, m1 = 2.29	1291.2 ± 1.1	–	–
317.9 K, m1 = 1.906	1246.3 ± 1	–	–
317.9 K, m1 = 2.344	1297.2 ± 1.1	–	–
318.15 K, m1 = 0.0875	–	1540.1 ± 4.1	–
318.15 K, m1 = 0.1329	–	1539.2 ± 4.1	0.632 ± 0.007
318.15 K, m1 = 0.2466	–	1542.8 ± 4.1	0.655 ± 0.008
318.15 K, m1 = 0.3388	–	1544.7 ± 4.1	0.676 ± 0.008
318.15 K, m1 = 0.6111	–	1555.1 ± 4.1	0.738 ± 0.009
318.15 K, m1 = 0.6405	–	1557.5 ± 4.1	0.745 ± 0.009
318.15 K, m1 = 1.113	–	1574.6 ± 4.2	0.873 ± 0.01
318.15 K, m1 = 1.258	–	1583.5 ± 4.2	0.926 ± 0.011
318.15 K, m1 = 1.551	–	1597.5 ± 4.2	1.014 ± 0.012
318.15 K, m1 = 1.906	–	1606.7 ± 4.3	1.169 ± 0.014
318.15 K, m1 = 2.145	–	1623.3 ± 4.3	1.287 ± 0.015
318.15 K, m1 = 2.29	–	1629.6 ± 4.3	1.35 ± 0.016
318.15 K, m1 = 2.292	1291.3 ± 1.1	1631.3 ± 4.3	–
318.15 K, m1 = 2.344	–	1633.9 ± 4.3	1.366 ± 0.016
318.15 K, m1 = 2.91	–	1657.1 ± 4.4	1.68 ± 0.02
318.15 K, m1 = 3.472	–	1678.7 ± 4.4	2.088 ± 0.025
318.15 K, m1 = 4.075	–	1696.7 ± 4.5	2.588 ± 0.031
318.15 K, m1 = 4.817	–	1717.9 ± 4.5	3.383 ± 0.042
318.15 K, m1 = 5.224	–	1724.7 ± 4.6	3.857 ± 0.048
318.15 K, m1 = 5.797	–	1732 ± 4.6	4.807 ± 0.06
318.15 K, m1 = 6.34	–	1735.3 ± 4.6	5.725 ± 0.072
318.15 K, m1 = 6.89	–	1740.7 ± 4.6	6.968 ± 0.087
318.15 K, m1 = 7.349	–	1740.9 ± 4.6	8.113 ± 0.1
318.25 K, m1 = 0.6111	1077.9 ± 0.8	–	–
318.25 K, m1 = 4.817	1539 ± 1.4	–	–
318.3 K, m1 = 2.91	1359.3 ± 1.2	–	–
318.45 K, m1 = 6.89	1689.4 ± 1.6	–	–
318.6 K, m1 = 0.1329	1009.1 ± 0.8	–	–
318.65 K, m1 = 4.075	1474.2 ± 1.3	–	–
318.8 K, m1 = 0.6405	1081.7 ± 0.8	–	–
318.8 K, m1 = 3.472	1416.3 ± 1.2	–	–
318.85 K, m1 = 1.551	1202 ± 1	–	–
319.05 K, m1 = 0.0875	1002.2 ± 0.8	–	–
319.05 K, m1 = 0.3388	1038.8 ± 0.8	–	–
319.15 K, m1 = 1.113	1145.7 ± 0.9	–	–
319.2 K, m1 = 0.2466	1025.6 ± 0.8	–	–
319.3 K, m1 = 6.34	1652.5 ± 1.6	–	–
319.3 K, m1 = 7.764	1740.4 ± 1.7	–	–
320.05 K, m1 = 5.224	1570.1 ± 1.5	–	–
320.5 K, m1 = 0.6111	1076.8 ± 0.9	–	–
320.6 K, m1 = 4.075	1472.7 ± 1.3	–	–
320.75 K, m1 = 0.1329	1008.1 ± 0.8	–	–
320.85 K, m1 = 5.8	1612.8 ± 1.5	–	–
321 K, m1 = 1.258	1163.6 ± 0.9	–	–
321 K, m1 = 7.349	1714.9 ± 1.7	–	–
321.05 K, m1 = 2.145	1272.2 ± 1.1	–	–
321.25 K, m1 = 1.113	1144.5 ± 0.9	–	–
321.3 K, m1 = 0.0875	1001.2 ± 0.8	–	–
321.3 K, m1 = 0.3388	1037.8 ± 0.8	–	–
321.35 K, m1 = 0.2466	1024.5 ± 0.8	–	–
321.4 K, m1 = 2.29	1288.5 ± 1.1	–	–
321.65 K, m1 = 2.344	1294.6 ± 1.1	–	–
321.7 K, m1 = 1.906	1243.6 ± 1	–	–
321.75 K, m1 = 4.817	1535.8 ± 1.4	–	–
321.85 K, m1 = 6.89	1685.8 ± 1.6	–	–
322.05 K, m1 = 2.292	1288.5 ± 1.1	–	–
322.05 K, m1 = 2.91	1356.4 ± 1.2	–	–
322.4 K, m1 = 0.6111	1075.8 ± 0.9	–	–
322.5 K, m1 = 3.472	1413.3 ± 1.3	–	–
322.55 K, m1 = 7.764	1736.9 ± 1.7	–	–
322.6 K, m1 = 6.34	1649 ± 1.6	–	–
322.75 K, m1 = 1.551	1199.5 ± 1	–	–
322.95 K, m1 = 0.6405	1079.6 ± 0.9	–	–
323.15 K, m1 = 0.0875	–	1545.6 ± 4.1	–
323.15 K, m1 = 0.1329	–	1544.6 ± 4.1	0.58 ± 0.007
323.15 K, m1 = 0.2466	–	1547.7 ± 4.1	0.601 ± 0.007
323.15 K, m1 = 0.3388	–	1551.5 ± 4.1	0.621 ± 0.007
323.15 K, m1 = 0.6111	–	1560.9 ± 4.1	0.679 ± 0.008
323.15 K, m1 = 0.6405	–	1561 ± 4.1	0.686 ± 0.008
323.15 K, m1 = 1.113	–	1577.8 ± 4.2	0.804 ± 0.009
323.15 K, m1 = 1.258	–	1585.2 ± 4.2	0.853 ± 0.01
323.15 K, m1 = 1.551	–	1598.3 ± 4.2	0.935 ± 0.011
323.15 K, m1 = 1.906	–	1611 ± 4.3	1.077 ± 0.013
323.15 K, m1 = 2.145	–	1622.9 ± 4.3	1.183 ± 0.014
323.15 K, m1 = 2.29	–	1630 ± 4.3	1.245 ± 0.015
323.15 K, m1 = 2.292	–	1631.1 ± 4.3	–
323.15 K, m1 = 2.344	–	1628.1 ± 4.3	1.254 ± 0.015
323.15 K, m1 = 2.91	–	1651.1 ± 4.4	1.537 ± 0.018
323.15 K, m1 = 3.472	–	1675.6 ± 4.4	1.908 ± 0.023
323.15 K, m1 = 4.075	–	1690.4 ± 4.5	2.349 ± 0.029
323.15 K, m1 = 4.817	–	1707.1 ± 4.5	3.051 ± 0.037
323.15 K, m1 = 5.224	–	1716.7 ± 4.5	3.464 ± 0.043
323.15 K, m1 = 5.797	–	1723.6 ± 4.6	4.283 ± 0.053
323.15 K, m1 = 6.34	–	1724.9 ± 4.6	5.066 ± 0.064
323.15 K, m1 = 6.89	–	1729.5 ± 4.6	6.121 ± 0.077
323.15 K, m1 = 7.349	–	1729.7 ± 4.6	7.071 ± 0.089
324.25 K, m1 = 7.764	1734.9 ± 1.7	–	–
